Read-outs that look alike come from different tables or passages of the source.
Legend:
[1] = tested on: apomorphine-induced disruption of prepulse inhibition; settings: rat, background statement; cited from earlier work
human D4.2 receptor = biological target: T1, human D4.2 receptor (Homo sapiens, UniProt P21917, DEL265-296); experiment: Inhibition of [3H]spiperone binding to human dopamine D4.2 receptors; settings: human D4.2, CHO K1 membranes
T1 construct: expressed in transfected cells; host or cells: CHO K1 cells
T1 sequence (P21917 with tags, fused parts or gaps DEL265-296): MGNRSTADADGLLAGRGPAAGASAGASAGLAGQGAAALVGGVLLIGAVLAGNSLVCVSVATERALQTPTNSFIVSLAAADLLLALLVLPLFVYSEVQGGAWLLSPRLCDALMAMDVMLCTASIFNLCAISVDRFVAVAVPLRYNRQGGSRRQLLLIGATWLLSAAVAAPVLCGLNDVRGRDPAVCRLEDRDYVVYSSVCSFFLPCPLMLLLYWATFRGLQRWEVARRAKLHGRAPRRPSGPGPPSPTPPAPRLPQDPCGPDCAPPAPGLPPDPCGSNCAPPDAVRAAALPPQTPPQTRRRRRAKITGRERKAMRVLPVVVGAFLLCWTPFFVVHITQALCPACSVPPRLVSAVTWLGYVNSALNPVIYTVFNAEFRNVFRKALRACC
Source text: (§1) A cell line expressing human dopamine D2 (Long form) receptors was purchased from Oregon Health Sciences University, Portland, Oreg. The D2 receptor cDNA was subcloned into an expression vector, pRc/CMV. The plasmids were transfected by electroporation into CHO K1 cells. A single stable transfectant, resistant to the antibiotic 418, was isolated and selected for use in the binding studies. For D4 binding, CHO K1 cells stably transfected to express the human recombinant dopamine D4.2 receptor subtype, as described by Shih, et al., "The expression and functional characterization of human dopamine D4.2 receptor in CHO K1 cells," Soc. Neurosci., 1995;21(Part 1):621.
(§2) CHO K1 cells expressing either human D2 and D4.2 receptors were grown in 162 cm^2 culture flasks in F12 medium (Gibco Laboratories, Grand Island, N.Y.) supplemented with 10% fetal bovine serum (FBS, Hyclone, Logan, Utah) in an atmosphere of 5% CO2 /95% air at 37° C. Cells were grown until confluent, after which growth medium was removed and replaced with 0.02% ethylene diamine tetracetate (EDTA) in a phosphate-buffered saline solution (Sigma Chemical Co., St. Louis, Mo.) and scraped from the flasks. The cells were centrifuged at about 1000×g for 10 minutes at […] and then resuspended in TEM buffer (25 mM Tris-HCl, pH 7.4, 5 mM EDTA, and 6 mM MgCl2) for D2 or the D4.2 buffer (50 mM Tris-HCl, pH 7.4, 5 mM EDTA, 1.5 mM CaCl2, 5 mM KCl, and 120 mM NaCl) and homogenized. The membranes were pelleted by centrifugation at 20,000×g at […] for 20 minutes. Then the pellets were resuspended in appropriate buffer at 1 mL/flask and stored at -70° C. until used in the receptor binding assay.
(§3) Receptor Binding Assays: D2,D4.2 Dopamine Receptors
(§4) After 60 minutes incubation at 25° C., the incubations were terminated by rapid filtration through Whatmann F/B lass fibre filters (soaked for 1 hour in 0.5% polyethylenimine) on a cell harvester, with three washes of 1 mL ice-cold buffer. Individual filter disks containing the bound ligand were placed in counting vials with 4 mL of scintillation fluid (Ready Gel, Beckman Instrument Inc., Fullerton, Calif.) and then counted in a Beckman LS-6800 liquid scintillation counter at an efficiency of 45%. Nonspecific binding was defined in presence of 1 mM of haloperidol.
(§5) Saturation and competition binding data were analyzed using an iterative nonlinear least-square curve-fitting Ligand program. In competition experiments, apparent Ki values were calculated from IC50 values by method of Cheng and Prusoff, "Relationship between the inhibition constant (Ki) and the concentration of inhibitor which causes 50% inhibition (IC50) of an enzymatic reaction," Biochem. Pharmacol., 1973;22:3099-3108. Experimental compounds were made up as stock solutions in dimethyl sulfoxide (DMSO). […] Each observation was carried out in triplicate. To allow these calculations, Ki values were measured for the interaction of various ligands with the receptor. […]

[2] = tested on: synthesis rates of rat brain catecholamines; settings: ip
Method: Test compounds were administered to rats i.p. 30 minutes before the injection of the L-aromatic amino acid decarboxylase inhibitor, NSD 1015 (100 mg/kg i.p.). Rats were sacrificed by decapitation 30 minutes later. The striatum and mesolimbic regions were rapidly dissected from the brains and stored at -70° C. until assayed. Synthesis rates of rat brain catecholamines were estimated by measuring the accumulation of the DA precursor DOPA after NSD 1015 administration by HPLC with electrochemical detection (Puglsey, et al., 1995). Each value represents the mean of four determinations and is expressed as a percent of the control values.

human DA D4.2 receptor = biological target: T2, human DA D4.2 receptor (Homo sapiens, UniProt P21917, DEL265-296); experiment: [3H]Thymidine uptake assay (block of quinpirole stimulation in CHO pro-5 cells transfected with human DA D4.2 receptor); format: cell-based; settings: human D4.2, quinpirole-stimulated uptake
T2 construct: expressed in transfected cells
T2 sequence (P21917 with tags, fused parts or gaps DEL265-296): T1 sequence (P21917 with tags, fused parts or gaps DEL265-296)
Method: Compounds were tested for their ability to bind to dopamine (DA) receptors as measured by their inhibition of [^3 H]spiperone binding to the human D2, and D4.2 receptors (Pugsley, et al., 1995). The ability of test compounds to block the stimulation of [^3 H]thymidine uptake in CHO pro-5 cells transfected with human DA D4.2 receptor cDNA caused by the DA agonist quinpirole was employed as an in vitro measure of DA receptor antagonist activity (Pugsley, et al., 1995). The effects of compounds on synthesis rates of rat brain catecholamines were estimated by measuring the accumulation of [3-(3,4-dihydroxyphenyl)-L-alanine (DOPA) after administration of the L-aromatic amino acid decarboxylase inhibitor, NSD 1015 (Pugsley, et al., 1995).
[^3 H]Thymidine Uptake Assay
The effects of test compounds on [^3 H]thymidine uptake were carried out essentially as described by Pugsley, et al., 1995. CHO p-5 cells transfected with human D4.2 cDNA were seeded into 96-well plates at a density of about 5000 cells/well and were grown at 37° C. in a minimum essential medium (aMEM, Gibco) with 10% calf serum for 2 days. The wells were then rinsed three times with serum-free media. Fresh media ([…]) was added along with […] of test compound in water or vehicle alone. Eight wells of each plate received […] of aMEM with 10% fetal calf serum. After culture for 16 to 17 hours, [3H]thymidine ([…]) was added for 4 hours. The cells were trypsinized and harvested onto filter mats with a 96-well Brandel cell harvester. The filters were counted in a Beta-Plate scintillation counter.

human D2 receptor = human D2 receptor (Homo sapiens, UniProt P14416); experiment: Inhibition of [3H]spiperone binding to human dopamine D2 receptors; settings: human D2 (Long form), CHO K1 membranes
Source text: as §1, §2, §3, §4, §5

[3] = tested on: amphetamine-stimulated locomotion; experiment: Blockade of amphetamine-stimulated locomotion in rats; format: in vivo, rat
Source text: PROTOCOL FOR THE BLOCKADE OF AMPHETAMINE-STIMULATED LOCOMOTION IN RATS
The blockade of amphetamine-stimulated locomotion procedure is a modification of the Locomotor Activity Protocol in the Omnitech Digiscan Activity Monitors described above. The blockade of amphetamine-stimulated locomotion procedure uses the central nervous system stimulant d-amphetamine to assess antipsychotic activity of dopaminergic agents.
Male Sprague-Dawley rats (Harlan Labs) were used for these studies. Drugs were dissolved in saline or water, and administered either orally (PO) or intraperitoneally (IP) in volumes of 5 mL/kg. Saline control rats and amphetamine (0.5 mg/kg IP) control rats are included with each study (n=4-6 rats per treatment group). For the IP studies, amphetamine is given 20 minutes prior to the drug, after which a 30 minute locomotor activity test is conducted. For the oral study, drug is dosed 30 minutes prior to the test, while amphetamine is given 15 minutes prior to the test, which allows time for oral absorption. Locomotor activity (centimeters travelled per 30 minute test) is measured in 16"×16" open chambers. Amphetamine generally produces a 2- to 3-fold increase in locomotion over saline controls. Drug effects are reported as percent reversal of amphetamine-stimulated locomotion. Significant changes in amphetamine-stimulated locomotion, relative to amphetamine treated controls, were determined by t-test. The dose which would reverse amphetamine-stimulated locomotion by 50% (ED50) and the 95% confidence limits were estimated by regression analysis.

Chain of human D2 receptor (P14416 whole entry): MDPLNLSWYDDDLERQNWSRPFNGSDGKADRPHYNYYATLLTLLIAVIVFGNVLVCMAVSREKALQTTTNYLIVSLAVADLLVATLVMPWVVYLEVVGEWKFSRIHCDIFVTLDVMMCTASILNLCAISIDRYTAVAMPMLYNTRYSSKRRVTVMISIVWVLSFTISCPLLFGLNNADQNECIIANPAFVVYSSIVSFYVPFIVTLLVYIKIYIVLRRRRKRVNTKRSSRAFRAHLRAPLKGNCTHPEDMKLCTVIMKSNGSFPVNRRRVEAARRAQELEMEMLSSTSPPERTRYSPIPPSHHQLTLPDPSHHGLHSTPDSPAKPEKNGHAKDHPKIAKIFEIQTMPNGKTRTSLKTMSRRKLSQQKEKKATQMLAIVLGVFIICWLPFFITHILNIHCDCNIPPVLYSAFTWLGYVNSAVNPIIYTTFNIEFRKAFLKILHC

SMILES: CN1CCN(C2=Nc3cc(Cl)ccc3Nc3ccccc32)CC1 [clozapine]
- antagonism of DA agonist-induced disruption of PPI (result in words) [1]: can be blocked

SMILES: CN1CCc2cccc3c2[C@H]1Cc1ccc(O)c(O)c1-3 [apomorphine]
- blocking of PPI by DA agonists (result in words) [1]: can be blocked

SMILES: Clc1ccc(N2CCN(Cc3ccc4c(c3)NCCN4)CC2)cc1 [Example 5, 6-[4-(4-Chlorophenyl)piperazin-1-ylmethyl]1,2,3,4-tetrahydroquinoxaline]
- IC50 (human D4.2 receptor): 6 nM
- DA Synthesis in Rat Striatum [2]: +20% of the control values
- IC50 (human DA D4.2 receptor): 19 nM

SMILES: Fc1ccc(N2CCN(Cc3ccc4c(c3)NCCN4)CC2)cc1 [Example 6, 6-[4-(4-Fluorophenyl)piperazin-1-ylmethyl]-1,2,3,4-tetrahydroquinoxaline]
- IC50 (human D4.2 receptor): 50.6 nM

SMILES: c1ccc(N2CCN(Cc3ccc4c(c3)NCCN4)CC2)cc1 [Example 3, 6-(4-Phenylpiperazin-1-ylmethyl)-1,2,3,4-tetrahydroquinoxaline]
- IC50 (human D2 receptor): 3200 nM
- IC50 (human D4.2 receptor): 50 nM

SMILES: FC(F)(F)c1cccc(N2CCN(Cc3ccc4c(c3)NCCN4)CC2)c1 [Example 11, 6-[4-(3-Trifluoromethylphenyl)piperazin-1-ylmethyl]-1,2,3,4-tetrahydroquinoxaline]
- IC50 (human D2 receptor): 683 nM
- IC50 (human D4.2 receptor): 22 nM

SMILES: COc1ccc(N2CCN(Cc3ccc4c(c3)NCCN4)CC2)cc1 [Example 4, 6-[4-(4-Methoxyphenyl)piperazin-1-ylmethyl]-1,2,3,4-tetrahydroquinoxaline]
- IC50 (human D4.2 receptor): 39.3 nM

SMILES: Cc1ccc(N2CCN(Cc3ccc4c(c3)NCCN4)CC2)cc1Cl [Example 1, 6-[4-(3-Chloro-4-methylphenyl)piperazin-1-ylmethyl]-1,2,3,4-tetrahydroquinoxaline]
- IC50 (human D2 receptor): 1810 nM
- IC50 (human D4.2 receptor): 3.9 nM
- DA Synthesis in Rat Hippocampus [2]: +62% of the control values
- DA Synthesis in Rat Striatum [2]: -9% of the control values
- blockade of amphetamine-stimulated locomotion (result in words) ([3]; rat, 3, 10, and 30 mg/kg IP): dose-dependent blockade
- ED50 ([3]; rat, IP, read-out: blockade of amphetamine-stimulated locomotion ED50): 9.1 mg/kg
- ED50 ([3]; rat, PO, read-out: oral blockade of amphetamine-stimulated locomotion ED50): > 30 mg/kg
- IC50 (human DA D4.2 receptor): 10 nM

SMILES: Cc1ccnc(N2CCN(Cc3ccc4c(c3)NCCN4)CC2)c1 [Example 10, 6-[4-(4-Methylpyridin-2-yl)piperazin-1-ylmethyl]-1,2,3,4-tetrahydroquinoxaline]
- IC50 (human D4.2 receptor): 35 nM

SMILES: Cc1ccc(N2CCN(Cc3ccc4c(c3)NCCN4)CC2)cc1 [Example 8, 6-(4-p-Tolylpiperazin-1-ylmethyl)-1,2,3,4-tetrahydroquinoxaline]
- IC50 (human D4.2 receptor): 11.1 nM
- DA Synthesis in Rat Striatum [2]: +39% of the control values
- IC50 (human DA D4.2 receptor): 8.2 nM

SMILES: CC(N)Cc1ccccc1 (stereo not drawn) [amphetamine]
- blocking of PPI by DA agonists (result in words) [1]: can be blocked

SMILES: Cc1cccc(N2CCN(Cc3ccc4c(c3)NCCN4)CC2)c1 [Example 9, 6-(4-m-Tolylpiperazin-1-ylmethyl)-1,2,3,4-tetrahydroquinoxaline]
- IC50 (human D4.2 receptor): 36.3 nM

SMILES: Clc1ccc(N2CCN(Cc3ccc4c(c3)NCCN4)CC2)cc1Cl [Example 7, 6-[4-(3,4-Dichlorophenyl)piperazin-1-ylmethyl]-1,2,3,4-tetrahydroquinoxaline]
- IC50 (human D2 receptor): 1650 nM
- IC50 (human D4.2 receptor): 5 nM
- DA Synthesis in Rat Striatum [2]: +23% of the control values
- blockade of amphetamine-stimulated locomotion ([3]; rat, 30 mg/kg PO): 100%

SMILES: O=C(CCCN1CCC(O)(c2ccc(Cl)cc2)CC1)c1ccc(F)cc1 [haloperidol]
- antagonism of DA agonist-induced disruption of PPI (result in words) [1]: can be antagonized

— patent publication US5885994A, “Tetrahydroquinoxaline dopamine D4 receptor antagonists” (Warner-Lambert Company, priority 1998, dated 1999)
